According to US20120255051A1, “HERBICIDE TOLERANT PLANTS” (priority 2009, published 2012):
“And” between values parts separate entries of the source, which are not always exact repeats. Equal entries are not always repeated.

System: Brassica plants comprising mutant AHAS alleles
Experiment: Field trial, pre-planting treatment (0, 10, 20, 30 g a.i./ha), two locations in Canada: ERG, EST1, EST2, PPTOX, VIG1, VIG2, VIG3 scores
Assay type: in vivo, Brassica napus
Conditions: for vigor3 (VIG3) score, Av: Elite parent line plants
Description: Tests were set up and conducted to asses the growth and performance of plants comprising AHAS full knock-out alleles, and to further analyze the correlation between the presence of full knockout and missense AHAS genes in Brassica plants and plant growth and herbicide tolerance of the Brassica plants in the field. To this end, the Brassica plants identified in Example 1 and 2 were backcrossed two times with an elite parent line, and subsequently selfed twice to obtain homozygous plants (BC2S2). Plants were grown as row plots in a split plot design with three replicates (main plots=herbicide treatments, subplots=genotypes) at two locations in Canada. Treatment pre-planting was carried out on the soil about two days before sowing with a dose of 0 (treatment A), 10 (treatment B), 20 (treatment C) or 30 (treatment D) g a.i./ha of thiencarbazone methyl. Herbicide tolerance was measured by scoring for different parameters. The parameter emergence (ERG) was scored at the cotyledon stage on a scale 1-9, where 1 means late emergence and 9 means early emergence. Establishment was scored 14 days after sowing (EST1) and 21 days after sowing (EST2). Scores were from 1 to 9, where 1 is the worst establishment (least plants that emerged), and 9 is the best establishment (most plants emerged). Phytotoxicity (PPTOX) was determined after establishment. Plants were evaluated on a scale of 1 to 9, where 1=completely yellowing, 5=50% of plant is yellow and 9=no yellowing. The vigor scores (see above) were determined at 1-2 leaf stage (VIG1), 7 days after VIG1 (VIG2) and 14 days after VIG1 (VIG3). The average values (Av) and standard deviations (SD) of the scores for the different parameters are represented in Table 7a-g.
Further, the contribution of the knock-out allele to herbicide tolerance conferred by the missense allele was calculated. First, the scores were corrected for a possible effect of the growth per se, independent of herbicide treatment. To this end, the scores for treatments B, C and D were divided by the scores for treatment A for the same genotype and for the same parameter (corrected herbicide tolerance scores). Next, the effect of the knock-out allele to these corrected herbicide tolerance scores obtained by the missense allele was calculated. Therefore, the corrected herbicide tolerance scores for the missense—knock-out allele combination was divided by the corrected herbicide tolerance scores for the missense allele—wild-type combination. In case the knock-out allele has no effect on herbicide tolerance conferred by the missense allele, this ratio should be 1. In case the knock-out allele positively contributes to the herbicide tolerance conferred by the missense allele, this ratio should be higher than 1. The results for the contribution of the knock-out allele to herbicide tolerance conferred by the missense allele as calculated above are shown in table 8.

[1] = AHAS1 WT/AHAS3 WT, 30 g a.i./ha pre-planting (D), Location A
[2] = AHAS1 WT/AHAS3 WT, 30 g a.i./ha pre-planting (D), Location B
[3] = Elite parent line, 10 g a.i./ha pre-planting (B), Location A
[4] = Elite parent line, 10 g a.i./ha pre-planting (B), Location B
[5] = Elite parent line, 20 g a.i./ha pre-planting (C), Location A
[6] = Elite parent line, 20 g a.i./ha pre-planting (C), Location B
[7] = Elite parent line, 30 g a.i./ha pre-planting (D), Location A
[8] = Elite parent line, 30 g a.i./ha pre-planting (D), Location B
[9] = Elite parent line, treatment B 10 g a.i./ha pre-planting, Location A
[10] = Elite parent line, treatment B 10 g a.i./ha pre-planting, Location B
[11] = Elite parent line, treatment C 20 g a.i./ha pre-planting, Location A
[12] = Elite parent line, treatment C 20 g a.i./ha pre-planting, Location B
[13] = Elite parent line, treatment D 30 g a.i./ha pre-planting, Location A
[14] = Elite parent line, treatment D 30 g a.i./ha pre-planting, Location B
[15] = Location A, treatment B 10 g a.i./ha pre-planting, ratio >1 = positive contribution

## COC(=O)c1csc(C)c1S(=O)(=O)NC(=O)n1nc(OC)n(C)c1=O [thiencarbazone-methyl, methyl 4-[(4,5-dihydro-3-methoxy-4-methyl-5-oxo-1H-1,2,4-triazol-1-yl)carbonylsulfamoyl]-5-methylthiophene-3-carboxylate]
[1]
  vigor1 (VIG1) score, Av: 1.00
  vigor2 (VIG2) score, Av: 1.00
[2]
  establishment (EST2) score, Av: 1.33 and 2.00
  phytotoxicity (PPTOX) score, Av: 1.00 and 2.00
  vigor1 (VIG1) score, Av: 1.33
  vigor2 (VIG2) score, Av: 1.33 and 1.00
10 g a.i./ha (treatment B) pre-planting, Location A
  vigor3 (VIG3) score, Av: 1.00
10 g a.i./ha (treatment B) pre-planting, Location B
  vigor3 (VIG3) score, Av: 3.67
20 g a.i./ha (treatment C) pre-planting, Location A
  vigor3 (VIG3) score, Av: 1.00
20 g a.i./ha (treatment C) pre-planting, Location B
  vigor3 (VIG3) score, Av: 1.00
30 g a.i./ha (treatment D) pre-planting, Location A
  vigor3 (VIG3) score, Av: 1.00
30 g a.i./ha (treatment D) pre-planting, Location B
  vigor3 (VIG3) score, Av: 1.00
[3]
  establishment (EST2) score, Av: 2.00
  phytotoxicity (PPTOX) score, Av: 1.00
  vigor1 (VIG1) score, Av: 1.00
  vigor2 (VIG2) score, Av: 1.00
[4]
  establishment (EST2) score, Av: 6.00
  phytotoxicity (PPTOX) score, Av: 3.67
  vigor1 (VIG1) score, Av: 4.00
  vigor2 (VIG2) score, Av: 4.00
[5]
  establishment (EST2) score, Av: 2.33
  phytotoxicity (PPTOX) score, Av: 1.00
  vigor1 (VIG1) score, Av: 1.33
  vigor2 (VIG2) score, Av: 1.00
[6]
  establishment (EST2) score, Av: 4.67
  phytotoxicity (PPTOX) score, Av: 1.67
  vigor1 (VIG1) score, Av: 2.00
  vigor2 (VIG2) score, Av: 2.00
[7]
  establishment (EST2) score, Av: 2.00
  phytotoxicity (PPTOX) score, Av: 1.00
  vigor1 (VIG1) score, Av: 1.00
  vigor2 (VIG2) score, Av: 1.00
[8]
  establishment (EST2) score, Av: 4.00
  phytotoxicity (PPTOX) score, Av: 1.00
  vigor1 (VIG1) score, Av: 1.33
  vigor2 (VIG2) score, Av: 1.00
[9]
  emergence (ERG) score Av: 2.00
  establishment (EST1) score Av, 14 days after sowing: 2.00
[10]
  emergence (ERG) score Av: 5.00
  establishment (EST1) score Av, 14 days after sowing: 6.67
[11]
  emergence (ERG) score Av: 2.33
  establishment (EST1) score Av, 14 days after sowing: 2.33
[12]
  emergence (ERG) score Av: 4.33
  establishment (EST1) score Av, 14 days after sowing: 4.67
[13]
  emergence (ERG) score Av: 2.00
  establishment (EST1) score Av, 14 days after sowing: 2.00
[14]
  emergence (ERG) score Av: 3.00
  establishment (EST1) score Av, 14 days after sowing: 4.00
[15]
  relative contribution of HETO104 (AHAS3 KO) to herbicide tolerance conferred by HETO108 (AHAS1 missense): ERG: 0.86
  relative contribution of HETO104 (AHAS3 KO) to herbicide tolerance conferred by HETO108 (AHAS1 missense): EST1: 0.91
  relative contribution of HETO104 (AHAS3 KO) to herbicide tolerance conferred by HETO108 (AHAS1 missense): EST2: 0.95
  relative contribution of HETO104 (AHAS3 KO) to herbicide tolerance conferred by HETO108 (AHAS1 missense): PPTOX: 0.83
  relative contribution of HETO104 (AHAS3 KO) to herbicide tolerance conferred by HETO108 (AHAS1 missense): VIG1: 0.90
  relative contribution of HETO104 (AHAS3 KO) to herbicide tolerance conferred by HETO108 (AHAS1 missense): VIG2: 0.88
  relative contribution of HETO104 (AHAS3 KO) to herbicide tolerance conferred by HETO108 (AHAS1 missense): VIG3: 0.96
  relative contribution of HETO112 (AHAS1 KO) to herbicide tolerance conferred by HETO111 (AHAS3 missense): ERG: 0.85
  relative contribution of HETO112 (AHAS1 KO) to herbicide tolerance conferred by HETO111 (AHAS3 missense): EST1: 0.92
  relative contribution of HETO112 (AHAS1 KO) to herbicide tolerance conferred by HETO111 (AHAS3 missense): EST2: 1.04
  relative contribution of HETO112 (AHAS1 KO) to herbicide tolerance conferred by HETO111 (AHAS3 missense): PPTOX: 1.06
  relative contribution of HETO112 (AHAS1 KO) to herbicide tolerance conferred by HETO111 (AHAS3 missense): VIG1: 1.10
